# Assay results reported in patent US20090264457A1, “Combination of at least two 5HT6-Ligands” (priority 2007, published 2009).
# “Also recorded” adds a separate entry of the source.
# Key:
# Lister Hooded rats = test: Novel object discrimination trial (two trial paradigm); type: in vivo, rat; conditions: for Dose at which the maximum effect was achieved in dose response trials: i.p., drug 20 minutes before familiarisation trial, COMPOUND 1 at 1.25, 2.5, 5 or 10 mg/kg, SB-271046 at 5 or 10 mg/kg
# Method: Adult male Lister Hooded rats (Charles River, UK) weighing 200-350 g at the start of the experiment were housed in groups of four on a 12:12 h light:dark cycle (lights on at 07:00 h). Food and water were available ad libitum throughout the study, and the room temperature (21±2° C.) and relative humidity (45-65%) were kept constant. […] Each drug combination was administered to all rats in the group over a period of 4 weeks in a random order using a seven day behavioural test interval.
# The two trial novel object discrimination paradigm utilised, was as described by Ennaceur and Delacour, (1988) with minor modification (King et al., 2004b; Woolley et al., 2003). The twelve open field test arenas used for object discrimination were clear perspex boxes (39×23.5 cm with 24.5 cm high walls) to which each rat was habituated for 60 minutes the day prior to test days. On the test day the first drug was administered −40 minutes and the second drug −20 minutes before the familiarisation trial. Therefore, 20 minutes after the injection each rat received 3 minutes acclimatisation to the perspex box in absence of objects which was then followed by the 3 minute familiarisation trial and a second 3 minute choice trial following a 4 hour inter-trial interval. During both trials, exploration of each object was defined as the time spent (s) sniffing (within 1 cm of it with active vibrissae), licking, chewing or touching the object with the nose.
# 5HT6 receptor = 5HT6 receptor (Homo sapiens, UniProt P50406); conditions: cited from earlier work
# Sequence of 5HT6 receptor (P50406 whole entry): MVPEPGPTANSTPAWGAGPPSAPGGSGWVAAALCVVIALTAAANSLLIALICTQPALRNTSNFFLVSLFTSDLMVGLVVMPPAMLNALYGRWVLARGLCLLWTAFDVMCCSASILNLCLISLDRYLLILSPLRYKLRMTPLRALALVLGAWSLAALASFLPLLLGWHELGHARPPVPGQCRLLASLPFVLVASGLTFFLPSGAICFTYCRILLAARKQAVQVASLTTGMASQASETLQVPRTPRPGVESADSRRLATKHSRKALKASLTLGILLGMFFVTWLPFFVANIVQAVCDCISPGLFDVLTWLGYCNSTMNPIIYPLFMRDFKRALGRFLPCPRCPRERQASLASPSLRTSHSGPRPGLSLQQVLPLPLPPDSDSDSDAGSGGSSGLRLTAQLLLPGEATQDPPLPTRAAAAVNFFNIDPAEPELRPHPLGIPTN
SMILES,"Effectiveness alone in novel object discrimination (Lister Hooded rats; COMPOUND 1 alone at 1 mg/kg i.p., 1 mg/kg)",Dose at which the maximum effect was achieved in dose response trials (Lister Hooded rats),Functionality on the 5HT6 receptor (5HT6 receptor),"Effectiveness alone in novel object discrimination (Lister Hooded rats; SB-271046 alone at 5 mg/kg i.p., 5 mg/kg)"
"CN(C)CCc1c[nH]c2ccc(NS(=O)(=O)c3c(Cl)nc4sccn34)cc12 [COMPOUND 1, 6-Chloro-imidazo[2,1-b]thiazole-5-sulfonic acid [3-(2-dimethylamino-ethyl)-1H-indol-5-yl]-amide]",either not or very low effective; also recorded: neither COMPOUND 1 at 1 mg/kg nor SB-271046 at 5 mg/kg being significantly effective,5 mg/kg,agonist,
"COc1ccc(NS(=O)(=O)c2sc3ccc(Cl)cc3c2C)cc1N1CCNCC1 [SB-271046, 5-Chloro-N-(4-methoxy-3-(piperazin-1-yl)phenyl)-3-methyl-2-benzothiophene sulfonamide]",,10 mg/kg,antagonist,either not or very low effective; also recorded: neither COMPOUND 1 at 1 mg/kg nor SB-271046 at 5 mg/kg being significantly effective
